Source: ChEMBL document CHEMBL3507680, “University of Dundee, Gates Library screen for HepG2 cell viability”

Assay: Human HepG2 cell viability assay in 384 well format
Format: toxicity, cell-based
Set-up: dose 125 nL, time 70.5 hour; cytotoxicity at 70.5 h: concentration not given beside the values
Conditions: HepG2 cells, read-out: Inhibition

Compound | cytotoxicity at 70.5 h [%]
Cc1cccc(N2CCN(CCC(=O)NCc3cnc(C)cn3)CC2)c1 | 23.9
COc1ccc(CN2CCCC2)cc1Oc1ccc2c(c1)CC(CN)O2 (configuration not stated) | -11.3
O=C(O)c1cccc(CC2CCN(c3ncc(F)cn3)CC2)c1 | -9.85
CSc1nccc(NCC2CNCCO2)n1 (configuration not stated) | -5.51
Nc1cccc(-c2cccc3ccnn23)n1 | -6.36
CNc1ccnc(N2C[C@@H]3CC[C@H](C2)N(CCOC)C3=O)n1 | -8
CCCc1nc(C)cc(N2CCNC(C(=O)NC3CC3)C2)n1 (configuration not stated) | 2.45
Cc1cccn2cc(C(=O)N3CCCN(CC4CC4)C(C(C)C)C3)nc12 (configuration not stated) | -8.2
N#Cc1cccnc1N1CCCC(CO)(Cc2cccc(Cl)c2)C1 (configuration not stated) | 2.5
CN(C(=O)Cc1ccn(C)c1)C1CCCN(C2Cc3ccccc3C2)C1 (configuration not stated) | 1.52
CC(CO)NCc1csc2c1CCCC2 (configuration not stated) | 0.572
COc1ccccc1-n1nc(-c2ccco2)n(CC(N)=O)c1=O | -7.68
COCCN(Cc1sccc1C)C(=O)c1c(O)cccc1F | -5.43
Cc1ccc(CN2CCN(c3ncccc3Cl)CC2CCO)cc1 (configuration not stated) | -0.712
CC(C)c1cnc(N2C[C@H](CO)C[C@H](CN3CCOCC3)C2)nc1 | -4.2
CCCN1CCCn2nc(CNS(=O)(=O)c3ccc(F)cc3)cc2C1 | 4.7
Cc1cccc(C(C(=O)NC(C)(C)CN2CCOCC2)N(C)C)c1 (configuration not stated) | 25.2
Cc1ccc2nccc(C(=O)N3CCOC(CCN(C)C)C3)c2c1 (configuration not stated) | 15.6
O=S(=O)(c1ccc(-c2cnco2)cc1)N1CCCC(O)(CO)CC1 (configuration not stated) | 12.5
O=C(c1ccc(C2CCCN2)s1)N1CC=CC1 (configuration not stated) | -6.78
Cc1nc(NCCSc2cnn[nH]2)c2c(C)noc2n1 | 7.78

Compound | cytotoxicity at 70.5 h [%]
Cc1nnc(CN2CCCC(CCc3ccccc3C(F)(F)F)C2)o1 (configuration not stated) | -7.48
Cc1cnccc1N1CCN(C(=O)CCCN2CCCCC2)CC1 | -3.26
CC(C)N(C)C(=O)CN1C(=O)OC[C@@H]1c1ccccc1 | 0.286
COCC(=O)N1CCCC1c1ccc(C(=O)NCCN2CCCCC2)s1 (configuration not stated) | -10.2
CC(NC1CCCC1)c1ccccc1-n1cccn1 (configuration not stated) | -6.22
N#CC1(C(=O)N2C[C@H](Nc3ncccn3)[C@@H](C3CC3)C2)CCOCC1 | -15.6
CSc1ccc(CNC(=O)C2CC(=O)N(C(C)(C)C)C2)cc1 (configuration not stated) | -3.39
O=C(c1cn(CC(=O)N2CCc3[nH]cnc3C2)c2ccccc12)C1CC1 | -5.73
O=C(C1CCC1)N1CCc2[nH]cnc2C12CCN(C1CCOCC1)CC2 | -0.358
O=C(Cc1cc2c(cc1Cl)OCCO2)N1CC[C@H](CO)[C@H](O)C1 | -5.99
CC(C)[C@H]1CN(Cc2ccccn2)C[C@@H]1NC(=O)CCS(C)(=O)=O | -4.06
Cc1csc(CN2CCC(C(=O)O)(n3ccc(-c4ccco4)n3)CC2)n1 | -7.21
Cc1cccc(-n2ncc3c2CCCC3NCc2cnn(C)c2C)c1C (configuration not stated) | 3.5
Cn1c(=O)oc2ccc(NC(=O)N3CCOCC3)cc21 | 31.6
COc1cccc(-c2c[nH]c(C)n2)c1F | -11.2
O=C(CCn1ccc(=O)[nH]c1=O)N1CCC(OCc2cccnc2)CC1 | 27.2
CN1CCCN(C(=O)c2cc(CN(C)CCc3ccccc3)on2)CC1 | -10.4
CN(C)c1ncnc2c1CCN(S(=O)(=O)c1cccc(Cl)c1Cl)C2 | -4.66
O=C1CCC2(CCN(Cc3cscn3)CC2)CN1CCCO | -8.82
Cc1cnc(C)c(N2CCC(c3nnc(CN(C)C)n3C3CC3)CC2)n1 | 11.2
CCN(Cc1nccn1C)C(=O)c1ccc(NCCc2c[nH]cn2)nc1 | 4.71

Compound | cytotoxicity at 70.5 h [%]
CCN(C)Cc1n[nH]c(=O)n1-c1cc(F)ccc1C | -5.83
O=C(Cn1nc2ccccc2n1)N1CCCC(O)(CN2CCCC2)C1 (configuration not stated) | 13.9
CCOc1ccc(C(=O)CCC(=O)NCCc2nncn2CC)cc1C | 22.5
COCCOC(=O)N1CCn2nc(CN(C)Cc3nccs3)cc2C1 | 13.8
Cc1cccc(C2CCCN(C(=O)CN3CCC(C(N)=O)CC3)C2)c1 (configuration not stated) | -4.32
COCCCN(C)C(=O)Cn1cccc(OC)c1=O | -10.6
CC1(C)CN(CC(=O)NCc2ccccc2F)C[C@]1(C)O | -9.16
O=C(c1ccco1)N1CCc2c(nc(-c3ccncc3)[nH]c2=O)C1 | 13
CN(C)CCC1CN(C(=O)c2cccc3c2OCC3)CCO1 (configuration not stated) | 30
CC(C)[C@]1(O)CN(C(=O)COCC(N)=O)C[C@H]1C | 23.2
O=c1c2cccc(F)c2ncn1CCN1CCNCC1 | -2.04
Cc1c(Cl)c(C(=O)N2CC(c3cccnc3)C2)nn1C | -1.27
O=C(c1cncc(N2CCC3(CCCNC3)C2)n1)N1CCCC1 (configuration not stated) | -5.37
OCC1(CCOc2ccccc2)CCCN(c2ccc(Cl)cn2)C1 (configuration not stated) | -2.17
CN(C)c1nc2n(c(=O)n1)CCN2C(=O)Nc1ccccc1 | -5.25
O=C(Nc1ccccc1C(=O)NCCCN1CCOCC1)c1ccco1 | -6.18
CN(C(=O)c1ccc2c(c1)nc(N1CC[C@H](O)C1)n2C)C1CCSCC1 | 24.9
COc1ccc(Cl)cc1S(=O)(=O)N(C)CC(N)=O | -5
O=C(COc1cccnc1)N1CCOC(C(F)(F)F)C1 (configuration not stated) | -0.535
CC(=O)N1CCOC(CNC(=O)c2cccc(CCC(C)(C)O)c2)C1 (configuration not stated) | 8.87
COCc1ncc(CN2CC[C@@H](NC(=O)c3cccnc3)[C@H](O)C2)cn1 | 20.2

Compound | cytotoxicity at 70.5 h [%]
CC(C)(C)NC(=O)c1ccccc1NC(=O)c1ccncc1 | -5.9
CCN(CC)CCn1ccnc1-c1[nH]cnc1C | 3.84
COc1cccc(-c2noc3c2CN(c2nc(C)ncc2C)CC3)c1 | -9.61
N[C@H]1CN(Cc2cnc(N3CCCC3)nc2)C[C@@H]1C1CC1 | -5.36
COC(=O)c1ccc(OC)c(CN2CCN(CC(C)C)C(=O)C2C)c1 (configuration not stated) | 26.8
CCCc1cc(CNC2CCN(c3nc4ccccc4s3)CC2)on1 | -6.6
O=c1c2ccccc2ncn1Cc1cc(C2CC2)[nH]n1 | 13.8
CN(C)C(=O)C1CCCN1C(=O)c1ccc(Cn2ccnc2)o1 (configuration not stated) | 10.3
CCn1c(CC2CCNCC2)nn(Cc2ccc(C(=O)NC)o2)c1=O | -11.7
CC1CN(S(=O)(=O)c2ccc(C(=O)NCC(F)F)cc2)CCCO1 (configuration not stated) | -0.0719
Cn1ncc(C2CC(=O)NCc3nc4sccn4c32)c1C1CC1 (configuration not stated) | -12.3
CCc1c(C)nc(C)nc1N1C[C@@H](CN(C)C)[C@@H](CO)C1 | -1.15
CCCNS(=O)(=O)Cc1ccc(Br)cc1 | -7.66
Cc1ccc2cc(CN(C)Cc3ccccn3)c(=O)[nH]c2c1 | 12.4
CCc1ccccc1-c1cc(OC)nc(N)n1 | -8.45
CC(C)CC(O)C1CCN(C(=O)c2ccc(C(F)(F)F)nc2O)CC1 (configuration not stated) | -5.89
CCN(C)C(=O)c1cccc(S(=O)(=O)NCCc2nc(C)cc(=O)[nH]2)c1 | -22.4
CC(C)[C@H]1CN(CCCO)C[C@@H]1NC(=O)CCC(F)(F)F | -7.33
COc1cc(CNCC(C)O)cc(Cl)c1OCc1ccc(C)cc1 (configuration not stated) | 39
